These are literature values, as cited in US20210029988A1, “PEST REPELLENT COMPOSITION” (JGC CATALYSTS AND CHEMICALS LTD., priority 2018, published 2021).

The conditions of series [1]: within 6 hours.

Molecules are shown by their SMILES.

As for `CCN(CC)C(=O)c1cccc(C)c1` [DEET, N,N-diethyl-m-toluamide], the “Vapor pressure at 20°C (VP)” value was 0.22 Pa. The “Transdermally absorbed proportion of DEET applied on the skin” value in series [1] is given as “about 50%”.
